Source: BindingDB's records for doi:10.1021/jm00088a003 (Merck Research Laboratories, 1992)

Biological target: T1, Dimer of Gag-Pol polyprotein [489-587] (Human immunodeficiency virus 1, UniProt P12497)
T1 construct: 489-587
Test: Protease Inhibition Assay
Details: pH 5.5; 30 °C
Protocol: Sensitivity of HIV-1 protease activity to protease inhibitors was determined by a peptide substrate cleavage assay. Protease products were analyzed on a reverse-phase high-pressure liquid chromatograph.

Compared with `CC(C)(C)OC(=O)N[C@@H](Cc1ccccc1)[C@@H](O)C[C@@H](Cc1ccc(OCC(=O)O)cc1)C(=O)N[C@H]1c2ccccc2C[C@H]1O` [2-{4-[(2R)-2-[(2S,3S)-3-{[(tert-butoxy)carbonyl]amino}-2-hydroxy-4-phenylbutyl]-2-{[(1S,2R)-2-hydroxy-2,3-dihydro-1H-inden-1-yl]carbamoyl}ethyl]phenoxy}acetic acid], `CC(C)(C)OC(=O)N[C@@H](Cc1ccccc1)[C@@H](O)C[C@@H](Cc1ccc(OCCO)cc1)C(=O)N[C@H]1c2ccccc2C[C@H]1O` [tert-butyl N-[(2S,3S,5R)-3-hydroxy-5-{[(1S,2R)-2-hydroxy-2,3-dihydro-1H-inden-1-yl]carbamoyl}-5-{[4-(2-hydroxyethoxy)phenyl]methyl}-1-phenylpentan-2-yl]carbamate] is 2.2-fold higher in IC50: 0.04 nM for the first, 0.09 nM for the second.

First: CC(C)(C)OC(=O)N[C@@H](Cc1ccccc1)[C@@H](O)C[C@@H](Cc1ccc(OCC[N+]2(O)CCOCC2)cc1)C(=O)N[C@H]1c2ccccc2C[C@H]1O [4-(2-{4-[(2R)-2-[(2S,3S)-3-{[(tert-butoxy)carbonyl]amino}-2-hydroxy-4-phenylbutyl]-2-{[(1S,2R)-2-hydroxy-2,3-dihydro-1H-inden-1-yl]carbamoyl}ethyl]phenoxy}ethyl)-4-hydroxymorpholin-4-ium]
Second: CC(C)(C)OC(=O)N[C@@H](Cc1ccc(OCCN2CCOCC2)cc1)[C@@H](O)C[C@@H](Cc1ccccc1)C(=O)N[C@H]1c2ccccc2C[C@H]1O [tert-butyl N-[(2S,3S,5R)-5-benzyl-3-hydroxy-5-{[(1S,2R)-2-hydroxy-2,3-dihydro-1H-inden-1-yl]carbamoyl}-1-{4-[2-(morpholin-4-yl)ethoxy]phenyl}pentan-2-yl]carbamate]
The IC50 of the first is 2.8-fold lower: 0.2 nM for the first, 0.55 nM for the second.

First: CC(C)(C)OC(=O)N[C@@H](Cc1ccccc1)[C@@H](O)C[C@@H](Cc1ccc(OCc2ccccc2)cc1)C(=O)N[C@H]1c2ccccc2C[C@H]1O [N-(2(R)-Hydroxy-1(S)-indany1)-5(S)-[(tert-butyloxycarbonyl)amino]-4(S)-hydroxy-6-phenyl-2(R)-[[4-(benzyloxy)phenyl]methyl]hexanamide]
Second: CC(C)(C)OC(=O)N[C@@H](Cc1ccc(O)cc1)[C@@H](O)C[C@@H](Cc1ccccc1)C(=O)N[C@H]1c2ccccc2C[C@H]1O [N-(2(R)-Hydroxy-1(S)-indanyl)-5(S)-[(tert-butyloxycarbonyl)amino]-4(S)-hydroxy-6-(4-hydroxyphenyl)-2-(R)-(phenylmethyl)hexanamide]
The IC50 of the first is 1.9-fold lower: 0.18 nM for the first, 0.35 nM for the second.

Going from `CC(C)(C)OC(=O)N[C@@H](Cc1ccc(O)cc1)[C@@H](O)C[C@@H](Cc1ccc(O)cc1)C(=O)N[C@H]1c2ccccc2C[C@H]1O` [N-(2(R)-Hydroxy-1(S)-indanyl)-5(S)-[(tert-butyloxycarbonyl)amino]-4(S)-hydroxy-6-(4-hydroxyphenyl)-2-(R)-[(4-hydroxyphenyl)methyl]hexanamide] to `CN(C)CCOc1ccc(C[C@H](C[C@H](O)[C@H](Cc2ccccc2)NC(=O)OC(C)(C)C)C(=O)N[C@H]2c3ccccc3C[C@H]2O)cc1` [tert-butyl N-[(2S,3S,5R)-5-({4-[2-(dimethylamino)ethoxy]phenyl}methyl)-3-hydroxy-5-{[(1S,2R)-2-hydroxy-2,3-dihydro-1H-inden-1-yl]carbamoyl}-1-phenylpentan-2-yl]carbamate], the IC50 rises from 0.15 nM to 2.1 nM (14-fold). The first is the more potent here.

First: CC(C)(C)OC(=O)N[C@@H](Cc1ccccc1)[C@@H](O)C[C@@H](Cc1ccc(OCCN2CCS(=O)(=O)CC2)cc1)C(=O)N[C@H]1c2ccccc2C[C@H]1O [N-(2(R)-Hydroxy-1(S)-indanyl)-5(S)-[(tert-butyloxycarbonyl)amino]-4(S)-hydroxy-6-phenyl-2(R)-[[4-[2-(1,1-dioxythiamorpholin-4-yl)ethoxy]phenyl]methyl]hexanamide]
Second: CC(C)(C)OC(=O)N[C@@H](Cc1ccccc1)[C@@H](O)C[C@@H](Cc1ccc(OCCN2CCCC2)cc1)C(=O)N[C@H]1c2ccccc2C[C@H]1O [tert-butyl N-[(2S,3S,5R)-3-hydroxy-5-{[(1S,2R)-2-hydroxy-2,3-dihydro-1H-inden-1-yl]carbamoyl}-1-phenyl-5-({4-[2-(pyrrolidin-1-yl)ethoxy]phenyl}methyl)pentan-2-yl]carbamate]
The IC50 of the first is 22-fold lower: 0.08 nM for the first, 1.8 nM for the second.

Going from `CC(C)(C)OC(=O)N[C@@H](Cc1ccccc1)[C@@H](O)C[C@@H](Cc1ccc(OCCN2CCSCC2)cc1)C(=O)N[C@H]1c2ccccc2C[C@H]1O` [N-(2(R)-Hydroxy-1(S)-indanyl)-5(S)-[(tert-butyloxycarbonyl)amino]-4(S)-hydroxy-6-phenyl-2(R)-[[4-[2-(thiamorpholin-4-yl)ethoxy]phenyl]methyl]hexanamide] to `CC(C)(C)OC(=O)N[C@@H](Cc1ccccc1)[C@@H](O)C[C@@H](Cc1ccc(OCCN2CCCCC2)cc1)C(=O)N[C@H]1c2ccccc2C[C@H]1O` [tert-butyl N-[(2S,3S,5R)-3-hydroxy-5-{[(1S,2R)-2-hydroxy-2,3-dihydro-1H-inden-1-yl]carbamoyl}-1-phenyl-5-({4-[2-(piperidin-1-yl)ethoxy]phenyl}methyl)pentan-2-yl]carbamate], the IC50 rises from 0.47 nM to 1.6 nM (3.4-fold). The first is the more potent here.

First: COCCN(CCOC)CCOc1ccc(C[C@H](C[C@H](O)[C@H](Cc2ccccc2)NC(=O)OC(C)(C)C)C(=O)N[C@H]2c3ccccc3C[C@H]2O)cc1 [N-(2(R)-Hydroxy-1(S)-indanyl)-5(S)-[(tert-butyloxycarbonyl)amino]-4(S)-hydroxy-6-phenyl-2(R)-[[4-[2-[N,N-bis(2-methoxyethyl)amino]ethoxy]phenyl]methyl]hexanamide]
Second: CC(C)(C)OC(=O)N[C@@H](Cc1ccccc1)[C@@H](O)C[C@@H](Cc1ccc(OCCN2CC[S+]([O-])CC2)cc1)C(=O)N[C@H]1c2ccccc2C[C@H]1O [tert-butyl N-[(2S,3S,5R)-3-hydroxy-5-{[(1S,2R)-2-hydroxy-2,3-dihydro-1H-inden-1-yl]carbamoyl}-5-({4-[2-(1-oxo-1,4-thiomorpholin-4-yl)ethoxy]phenyl}methyl)-1-phenylpentan-2-yl]carbamate]
The IC50 of the first is 13-fold higher: 0.9 nM for the first, 0.07 nM for the second. The second is the more potent here.

Compared with `CC(C)(C)OC(=O)N[C@@H](Cc1ccc(OCCN2CCOCC2)cc1)[C@@H](O)C[C@@H](Cc1ccc(OCCN2CCOCC2)cc1)C(=O)N[C@H]1c2ccccc2C[C@H]1O` [tert-butyl N-[(2S,3S,5R)-3-hydroxy-5-{[(1S,2R)-2-hydroxy-2,3-dihydro-1H-inden-1-yl]carbamoyl}-1-{4-[2-(morpholin-4-yl)ethoxy]phenyl}-5-({4-[2-(morpholin-4-yl)ethoxy]phenyl}methyl)pentan-2-yl]carbamate], `CN1CCN(CCOc2ccc(C[C@H](C[C@H](O)[C@H](Cc3ccccc3)NC(=O)OC(C)(C)C)C(=O)N[C@H]3c4ccccc4C[C@H]3O)cc2)CC1` [tert-butyl N-[(2S,3S,5R)-3-hydroxy-5-{[(1S,2R)-2-hydroxy-2,3-dihydro-1H-inden-1-yl]carbamoyl}-5-({4-[2-(4-methylpiperazin-1-yl)ethoxy]phenyl}methyl)-1-phenylpentan-2-yl]carbamate] is 9.5-fold lower in IC50: 1.9 nM for the first, 0.2 nM for the second. The second is the more potent here.

Compound `CC(C)(C)OC(=O)N[C@@H](Cc1ccccc1)[C@@H](O)C[C@@H](Cc1ccc(OCC(=O)N2CCOCC2)cc1)C(=O)N[C@H]1c2ccccc2C[C@H]1O` [tert-butyl N-[(2S,3S,5R)-3-hydroxy-5-{[(1S,2R)-2-hydroxy-2,3-dihydro-1H-inden-1-yl]carbamoyl}-5-({4-[2-(morpholin-4-yl)-2-oxoethoxy]phenyl}methyl)-1-phenylpentan-2-yl]carbamate] has an IC50 of 0.2 nM.
